In one series the target is T1, human CB1R (Homo sapiens, UniProt P21554).
T1 construct: purchased PerkinElmer RBHCB1M400UA
The series is described as follows: Radioligand competition displacement binding, [3H]CP-55,940, membranes with human CB1R. The procedure:
BNS compounds’ binding to CB1R and CB2R was assessed in competition displacement assays using [^3H]CP-55,940 as the radioligand and crude membranes from mouse brain or human cells overexpressing the CB1R or CB2R. All data were in triplicates with Ki values determined from three independent experiments. See SI for a detailed procedure. […]
(§1) Radioligand binding assays were performed to asse ss the binding affinity of the different compounds to hCB1R (RBHCB1M4 00UA; Per kinElmer) or hCB 2R
(§2) (RBXCB2 M400UA; PerkinElmer). Competition displacement as says w ere employed, […]
(§3) utilizing [3H] C P -55,940 as the radioligand and crude membranes from humans for CB1 R or CB2 R. T he compounds were tested at various concentrations (eight points with a five-fold serial dilution starting at two m M) , and their ability to displace [3H] CP - 55, 940 was evaluated. Upon completion of the binding assays, the reaction mixture was filtered through GF/C plates, followed by four washes with cold wash buffer. After drying for one hour, 50 μL of Perkin Elmer Microscint 20 cocktail was added to the filter plate wells, and the bound [3H] C P -55,940 radioligand was measured using a β counter. All data points were duplicated, and Ki values were determined from two independent experiments using GraphPad Prism 7.02 analysis software, extracted through nonlinear regression analysis. […]
Background: Displacement assays read how much labelled ligand stays bound in the presence of the test substance.

The target of a further series is T2, human CB2R (Homo sapiens, UniProt P34972).
T2 construct: purchased PerkinElmer; Charles River RBXCB2M400UA; A618
As to the kind of experiment: Radioligand competition displacement binding, [3H]CP-55,940, membranes with human CB2R. The conditions noted are these: [3H]CP-55,940 displacement, read-out: CB2R hKi. The procedure:
BNS compounds’ binding to CB1R and CB2R was assessed in competition displacement assays using [^3H]CP-55,940 as the radioligand and crude membranes from mouse brain or human cells overexpressing the CB1R or CB2R. All data were in triplicates with Ki values determined from three independent experiments. See SI for a detailed procedure.
Supplementary Experimental Methods […]
CB1R and CB2R binding. Binding to the CB1R/CB2R was asse ss ed using competition displacement as says with [ 3H] CP -55,940 as the radioligand. Purified membranes from the mouse brain were utilized for CB1R assessment (as described above). Purified […]
membranes from cells overexpressing human CB2R ( Char les River CAT # A618) w e r e employed for CB2R evaluation. […]
as §1, §2, §3
MgCl 2. The tissue was homogenized using a glass -Teflon and Hei-T ORQUE 200 homogenizer (Heidolph; Cat#17- 012- 002- 25 -1) set to 132 rpm. The resulting suspen sion underwent centrifugation at 48,000 × g for 20 min at four °C, and the supernatant was discarded. The pellet obtained was homogenized again and subjected to a second centrifugation under the same conditions. Subsequently, the resulting pellet […]
mM EGTA, 9 mM MgCl 2, and 150 mM NaCl, followed by homogenization. The protein concentration of the suspension was determined using the BCA assay, and the suspen sion was diluted to a final concentration of 2 mg/mL in assay buffer. The prepared suspension was aliquoted on ice and stored at - 80 °C for further use.

Series [1] addresses hERG cardiac potassium channel (Homo sapiens, UniProt Q12809). The series is described as follows: hERG automated patch clamp (SyncroPatch 384PE). The class given is cell-based. To be noted: whole cell hERG currents. For orientation: Block of hERG is tested as a sign of cardiac risk.
A further series concerns HepG2 cells. As to the kind of experiment: Cell viability assay (CellTiter Glo). The class given is cell-based. The conditions noted are these: 72 h; for IC50: Homo sapiens. The protocol: Cell viability assay. To assess the cell viability, which indicates the toxicity of the novel compounds, a total of 3,000 HepG2 cells were seeded into a 384-well plate. The compounds were then dispensed onto the cell plate using a Tecan D300e digital dispenser. Following compound addition, 35 μL CellTiter Glo reagent was added to all wells of the assay plate, and the plate was mixed for 30 sec on an or bital shaker to lyse cells. Subsequently, the plate was incubated at room temperature for 10 minutes. The luminescence signal was measured using a 384-well plate reader (EnVision). The obtained data were analyzed using XL-fit software (ID Business Solutions Ltd., Software version: XL fit 5. 5. 0. 5). The percentage of inhibition was calculated using the […]
Inhibition (%) = (1-Sample / ZPE) ×100
Sample represents the test compound's luminesc e nce signal, and ZPE represents the luminescence signal f r om the zer o-percent enzyme control.
On the technique in general: Cellular ATP, detected with luciferase, serves as a proxy for viable cell number.

Setting [2] is: human CB1R, read-out: CB1R hIC50.
The mark [3] stands for this setting: read-out: cell viability Absolute IC50.
[4] abbreviates: read-out: cell viability relative IC50.

The structures appear in SMILES notation. Read-outs that look alike come from different tables or passages of the source. Bounds are passed on as bounds.

T2 sequence (P34972 whole entry): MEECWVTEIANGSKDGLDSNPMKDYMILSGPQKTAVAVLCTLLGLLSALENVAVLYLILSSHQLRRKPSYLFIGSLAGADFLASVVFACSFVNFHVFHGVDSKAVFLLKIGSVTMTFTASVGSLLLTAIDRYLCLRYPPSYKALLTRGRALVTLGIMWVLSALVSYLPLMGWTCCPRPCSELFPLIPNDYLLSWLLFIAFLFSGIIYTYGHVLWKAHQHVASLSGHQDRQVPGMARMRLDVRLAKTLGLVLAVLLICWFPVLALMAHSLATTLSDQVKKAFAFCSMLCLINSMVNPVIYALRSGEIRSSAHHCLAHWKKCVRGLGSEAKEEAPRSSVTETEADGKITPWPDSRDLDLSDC
Sequence of hERG cardiac potassium channel (Q12809 whole entry): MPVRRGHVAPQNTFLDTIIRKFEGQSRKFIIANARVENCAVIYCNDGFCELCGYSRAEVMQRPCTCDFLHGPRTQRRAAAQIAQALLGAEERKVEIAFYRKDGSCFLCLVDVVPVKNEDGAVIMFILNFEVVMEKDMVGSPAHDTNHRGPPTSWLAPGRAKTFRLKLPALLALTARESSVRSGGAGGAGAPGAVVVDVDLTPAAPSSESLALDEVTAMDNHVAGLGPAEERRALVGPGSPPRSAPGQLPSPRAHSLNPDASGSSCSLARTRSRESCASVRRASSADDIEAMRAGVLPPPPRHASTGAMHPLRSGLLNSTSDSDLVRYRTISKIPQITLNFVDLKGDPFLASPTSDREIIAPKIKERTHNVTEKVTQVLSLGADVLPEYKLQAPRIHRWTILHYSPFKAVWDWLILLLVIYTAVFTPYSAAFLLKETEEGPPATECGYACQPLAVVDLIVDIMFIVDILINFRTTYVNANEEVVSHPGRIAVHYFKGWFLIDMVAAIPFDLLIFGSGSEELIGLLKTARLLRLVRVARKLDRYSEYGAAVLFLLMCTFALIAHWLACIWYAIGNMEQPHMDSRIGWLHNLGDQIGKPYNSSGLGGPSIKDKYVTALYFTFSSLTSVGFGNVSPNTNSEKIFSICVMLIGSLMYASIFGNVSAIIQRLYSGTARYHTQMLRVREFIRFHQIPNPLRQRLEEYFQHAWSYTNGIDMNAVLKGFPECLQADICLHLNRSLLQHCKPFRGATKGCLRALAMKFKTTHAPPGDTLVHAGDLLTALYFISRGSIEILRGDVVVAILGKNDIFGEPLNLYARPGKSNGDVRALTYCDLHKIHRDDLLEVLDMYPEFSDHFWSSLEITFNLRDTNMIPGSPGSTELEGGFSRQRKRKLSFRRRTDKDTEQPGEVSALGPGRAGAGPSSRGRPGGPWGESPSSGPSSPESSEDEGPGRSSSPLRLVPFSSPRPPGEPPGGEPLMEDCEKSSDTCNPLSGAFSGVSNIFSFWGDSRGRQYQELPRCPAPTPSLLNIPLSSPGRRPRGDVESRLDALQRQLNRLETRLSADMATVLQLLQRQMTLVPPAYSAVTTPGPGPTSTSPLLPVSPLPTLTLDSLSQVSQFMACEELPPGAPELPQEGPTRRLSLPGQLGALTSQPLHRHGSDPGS
T1 sequence (P21554 whole entry): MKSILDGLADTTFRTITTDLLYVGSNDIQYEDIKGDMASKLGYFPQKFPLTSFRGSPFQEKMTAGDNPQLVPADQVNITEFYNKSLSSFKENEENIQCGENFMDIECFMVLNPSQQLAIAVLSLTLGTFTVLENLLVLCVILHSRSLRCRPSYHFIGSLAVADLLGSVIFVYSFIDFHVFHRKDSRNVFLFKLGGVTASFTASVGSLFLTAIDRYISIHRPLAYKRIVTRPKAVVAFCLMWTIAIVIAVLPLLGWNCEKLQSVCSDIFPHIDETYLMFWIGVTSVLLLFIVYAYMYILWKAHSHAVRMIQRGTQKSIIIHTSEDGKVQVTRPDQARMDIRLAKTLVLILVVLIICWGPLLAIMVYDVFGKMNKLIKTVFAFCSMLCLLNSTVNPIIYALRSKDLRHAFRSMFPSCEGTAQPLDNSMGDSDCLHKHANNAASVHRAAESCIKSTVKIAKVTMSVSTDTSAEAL

For the compound `Cc1ccc(S(=O)(=O)NC2CCCOc3c2nn(-c2ccccc2Cl)c3-c2ccc(Cl)cc2)cc1` (stereo not shown) [BNS807], the IC50 on human CB1R (setting [2]) was 0.0015 µM; in series [1], 18 µM; with HepG2 cells (setting [3]) it was over 100 µM; in the series on HepG2 cells (setting [4]), 17.9 µM. For the same compound, the Ki at human CB2R is 1.65 µM. The “Bottom (%) of cell viability inhibition curve” value with HepG2 cells is -12.17%. Moreover, in the series with HepG2 cells, the “Slope of cell viability inhibition curve” value is reported as 1.52. Besides, the “Top (%) of cell viability inhibition curve” value in the series with HepG2 cells is 21.39%.

For `O=S(=O)(NC1CCCOc2c1nn(-c1ccccc1Cl)c2-c1ccc(Cl)cc1)c1ccc(Cl)cc1` (stereo not shown) [BNS808, 4-chloro-N-[2-(2-chlorophenyl)-3-(4-chlorophenyl)-5,6,7,8-tetrahydrooxepino[3,2-c]pyrazol-8-yl]benzenesulfonamide], the IC50 at human CB1R is 0.0008 µM; in series [1], 5.39 µM; in the series with HepG2 cells (setting [3]), 26.2 µM; in the series on HepG2 cells (setting [4]), 16.8 µM. Also, on human CB2R, the Ki came to 1.93 µM. The “Bottom (%) of cell viability inhibition curve” value with HepG2 cells is reported as -8.11%. The “Slope of cell viability inhibition curve” value in the series on HepG2 cells amounted to 3.39. Besides, the “Top (%) of cell viability inhibition curve” value with HepG2 cells is reported as 62.98%.

For the compound `CS(=O)(=O)N1CCC(C(=O)NC2CCCOc3c2nn(-c2ccccc2Cl)c3-c2ccc(Cl)cc2)CC1` (stereo not shown) [BNS815, N-[2-(2-Chlorophenyl)-3-(4-chlorophenyl)-5,6,7,8-tetrahydrooxepino[3,2-c]pyrazol-8-yl]-1-methylsulfonyl-piperidine-4-carboxamide], the Ki stood at 0.00909 µM on human CB1R ([3H]CP-55,940 displacement, human CB1R membranes, read-out: CB1R hKi) and 6.31 µM at human CB2R. Further, the IC50 at human CB1R (setting [2]) was determined as 0.0101 µM; in series [1], 4.86 µM; with HepG2 cells (setting [3]), 55.9 µM; with HepG2 cells (setting [4]), 46.7 µM. In addition, the “Bottom (%) of cell viability inhibition curve” value in the series with HepG2 cells is on record as -9.25%. Further, in the series on HepG2 cells, the “Slope of cell viability inhibition curve” value was determined as 3.71. For the same compound, in the series on HepG2 cells, the “Top (%) of cell viability inhibition curve” value stood at 80.41%.
